Values quoted from earlier work, collected in US4946853A, “Method for the treatment of withdrawal symptoms associated with smoking cessation and preparations for use in said method” (priority 1987, dated 1990).

How the values were obtained:
[1] = in vivo
[2] = within one hour of first smoking; 60 min
[3] = oral nicotine administration

## CN1CCCC1c1cccnc1 (stereo not drawn) [nicotine]
[1]
  absorption by the percutaneous route: high degree of absorption
[2]
  normal plasma trough level associated with usual smoking: 5 to 15 ng/mL
[3]
  gastrointestinal upsets: susceptibility of the patient to gastrointestinal upsets
